Where “and” joins values, the source holds several entries; their conditions need not be identical. Equal entries are not always repeated. After the bases stand the sugars from the 5' end (letter, count) and the backbone: PS all phosphorothioate, else s phosphorothioate and o phosphodiester by linkage. Methylation of C is not given here. e = 2'-O-(2-methoxyethyl) (MOE); k = constrained ethyl (cEt); d = 2'-deoxy (DNA)
Biological target: APOL1
Conditions: ASO

Sequence | target mRNA inhibition (A431, 0.0625 µM) | target mRNA inhibition (A431, 0.25 µM) | target mRNA inhibition (A431, 1 µM) | target mRNA inhibition (A431, 0.0156 µM) [%] | target mRNA inhibition (A431, 2 µM) [%] | target mRNA inhibition (A431, 0.04 µM)
ATTTCTTGATGTGGTG (sugars k4 d9 k3, PS) | 95% | 99% | 99% | – | – | –
ATTTCTTGATGTGGTG (sugars kdddddkekekddddd, PS) | 50% | 80% | 91% | 22 | 96 | –
CAAGTCAGTACAGAGC (sugars k4 d9 k3, PS) | 57% | 82% | 94% | – | – | –
CACATCATTGGGTTAT (sugars k4 d9 k3, PS) | 65% | 84% | 90% | – | – | –
CACATCATTGGGTTAT (sugars kkdddddkekeddddd, PS) | – | – | – | – | 77 | –
CACATCATTGGGTTAT (sugars kkddddekekeddddd, PS) | – | – | – | – | 81 | –
CACATCATTGGGTTAT (sugars kkkddddkekekdddd, PS) | – | – | – | – | 58 | –
CACCATAGCACGAAGC (sugars k4 d9 k3, PS) | 23% | 53% | 72% | – | – | –
CACTTTACATGCACGA (sugars kkddddddddddkeke, PS) | 35% | 66% | 87% | 16 | – | –
CACTTTATACCAGTGT (sugars k2 d4 e3 k2 d5, PS) | – | – | – | – | 0 | –
CACTTTATACCAGTGT (sugars kkkddddkekekdddd, PS) | – | – | – | – | 11 | –
CAGATGGGTACTTCTG (sugars kkddddkekekkdddd, PS) | – | – | – | – | 10 | –
CAGCATTGAGTACAAC (sugars k3 d10 k3, PS) | 38% | 58% | 84% | – | – | –
CAGTACAGAGCAGGAT (sugars k4 d9 k3, PS) | 59% | 82% | 94% | – | – | –
CAGTTTTGTAAGTGCA (sugars kekddddeekkddddd, PS) | 73% | 92% | 96% | 39 | 96 | –
CAGTTTTGTAAGTGCA (sugars kkdddddkekeddddd, PS) | 53% | 84% | 89% | 25 | 94 | –
CAGTTTTGTAAGTGCA (sugars kkkddddkekeddddd, PS) | – | – | – | – | 92 | –
CATTCAGAATTTCCAC (sugars k2 d4 e3 k2 d5, PS) | – | – | – | – | 78 | –
CATTCAGAATTTCCAC (sugars kkddddekekeddddd, PS) | – | – | – | – | 87 | –
CATTCAGAATTTCCAC (sugars kkddddkekekddddd, PS) | – | – | – | – | 76 | –
CATTCAGAATTTCCAC (sugars kkddddkekekkdddd, PS) | – | – | – | – | 57 | –
CATTTGGAGATCTGGC (sugars k4 d9 k3, PS) | 57% | 74% | 92% | – | – | –
CCACTTGAGTCATTTG (sugars k4 d9 k3, PS) | 40% | 72% | 90% | – | – | –
CCGTCAATATATTCTT (sugars kkkddddkekeddddd, PS) | – | – | – | – | 97 | –
CGCAATGCTGACTTGG (sugars k3 d4 k3 e1 d5, PS) | 61% | 83% | 92% | 34 | 94 | 50%
CGCAATGCTGACTTGG (sugars kkddddkekekddddd, PS) | – | – | – | – | 83 | –
CGTCAATATATTCTTT (sugars k3 d4 k3 e1 d5, PS) | – | – | 96% and 95% | – | 95 | –

Sequence | target mRNA inhibition (A431, 0.0625 µM) | target mRNA inhibition (A431, 0.25 µM) | target mRNA inhibition (A431, 1 µM) | target mRNA inhibition (A431, 0.0156 µM) [%] | target mRNA inhibition (A431, 2 µM) [%] | target mRNA inhibition (A431, 0.04 µM)
CGTCAATATATTCTTT (sugars kkdddddkekeddddd, PS) | – | – | – | – | 87 | –
CGTCAATATATTCTTT (sugars kkddddkdkdkddddd, PS) | – | – | – | – | 91 | –
CGTCAATATATTCTTT (sugars kkkddddkekeddddd, PS) | 72% | 90% | 96% and 95% | 35 | 94 | 53% and 50%
CGTCAATATATTCTTT (sugars kkkddddkekekdddd, PS) | 55% | 84% | 93% | 25 | 94 | –
CGTGTTATATTTGATC (sugars k2 d4 e3 k2 d5, PS) | – | – | – | – | 74 | –
CGTGTTATATTTGATC (sugars kkkddddkekekdddd, PS) | – | – | – | – | 82 | –
CTAATTTTCTGACTGT (sugars k2 d4 e3 k2 d5, PS) | – | – | – | – | 83 | –
CTAATTTTCTGACTGT (sugars k2 d4 e4 k2 d4, PS) | – | – | – | – | 88 | –
CTAATTTTCTGACTGT (sugars kkdddddkekeddddd, PS) | 56% | 80% | 93% | 27 | 98 | –
CTATTAGAGGGCTAGT (sugars k4 d9 k3, PS) | 32% and 19% | 52% and 39% | 71% and 51% | – | – | –
CTATTAGAGGGCTAGT (sugars kdddddkekekddddd, PS) | – | – | – | – | 28 | –
CTATTAGAGGGCTAGT (sugars kkddddkekekkdddd, PS) | – | – | – | – | 25 | –
CTGAAGATTGGCTCTG (sugars k2 d4 e3 k2 d5, PS) | – | – | – | – | 54 | –
CTTATGCTTACTCCAC (sugars k4 d9 k3, PS) | 64% | 75% | 90% | – | – | –
CTTTAAACTCAGGTGA (sugars k2 d4 e4 k2 d4, PS) | – | – | – | – | 88 | –
CTTTAAACTCAGGTGA (sugars kkdddddkekeddddd, PS) | – | – | – | – | 87 | –
CTTTAAACTCAGGTGA (sugars kkkddddkekekdddd, PS) | – | – | – | – | 40 | –
CTTTATACCAGTGTCT (sugars kkdddddkekeddddd, PS) | 41% | 74% | 92% | 14 | 97 | –
CTTTATACCAGTGTCT (sugars kkddddekekeddddd, PS) | 60% | 82% | 95% | 29 | 98 | 50%
GAACATTGAAACACCA (sugars k4 d9 k3, PS) | 39% | 70% | 89% | – | – | –
GAACGCAATGCTGACT (sugars kkddddekekeddddd, PS) | 40% | 74% | 92% | 19 | 95 | –
GAAGATTGGCTCTGGC (sugars kkddddekekeddddd, PS) | – | – | – | – | 64 | –
GAAGATTGGCTCTGGC (sugars kkddddkekekddddd, PS) | – | – | – | – | 48 | –
GAAGATTGGCTCTGGC (sugars kkkddddkdkdkdddd, PS) | – | – | – | – | 51 | –
GAAGATTGGCTCTGGC (sugars kkkddddkekekdddd, PS) | – | – | – | – | 16 | –
GAAGCTTTAAACTCAG (sugars k2 d4 e3 k2 d5, PS) | – | – | – | – | 72 | –

Source: the OligoGym collection
